Assay results taken from paper doi:10.1101/2024.08.25.609621 (bioRxiv, 2024).
“And” between values parts separate entries of the source, which are not always exact repeats. Equal entries are not always repeated. Where two headings read alike, the source gives them in different places.

Columns and labels:
[1] = target: SARS-CoV-2 NSP3 macrodomain (Mac1), P43 crystal form (Severe acute respiratory syndrome coronavirus 2, UniProt P0DTD1); assay type: binding; conditions: for PanDDA run, TFA/DMSO background map: 1-BDC / PanDDA run, TFA/DMSO background map: Hit: soak concentration 10 mM; for 1-BDC: PanDDA background density correction; for X-ray crystal structure: X-ray crystal structure determined (TRUE); for Total number of conformations: ligand conformations modeled in Mac1 crystal structure; for 2*(1-BDC) (%): occupancy estimate from PanDDA BDC; for Binding site: site of ligand in X-ray crystal structure
[2] = target: SARS-CoV-2 NSP3 macrodomain (Mac1) (Severe acute respiratory syndrome coronavirus 2, UniProt P0DTD1); test: biochemical; assay type: binding
[3] = ligand modeling in Mac1 crystal soak
[4] = Single dose, concentration 200 μM, read-out: Average % competition
[5] = preliminary screen, compound at 200 μM, mean of 3-4 technical replicates, read-out: % competition in HTRF assay
[6] = stereoisomer(s) of ligand modeled in Mac1 crystal structure
[7] = Single dose, concentration 200 μM, read-out: SARS CoV-2 macrodomain HTRF assay: Average % competition
[8] = dose-response, read-out: SARS CoV-2 macrodomain HTRF assay: IC50
[9] = dose-response, read-out: SARS CoV-2 macrodomain HTRF assay: Ki
[10] = from SARS CoV-2 macrodomain HTRF assay
[11] = crystal soak 10 mM, P43 crystals
[12] = crystal soak 10 mM, DMSO background map
[13] = SARS CoV-2 macrodomain HTRF assay
[14] = SARS CoV-2 macrodomain HTRF assay, dose-response, read-out: Ki
[15] = crystal soak 10 mM, DMSO background map, event 1
[16] = ligand modeling in Mac1 crystal structure
[17] = stereoisomer(s) modeled in Mac1 crystal structure
[18] = SARS CoV-2 macrodomain HTRF assay, dose-response
[19] = SARS CoV-2 macrodomain HTRF assay, dose-response, read-out: IC50

Compound	Number of isomers bound [1, 3]	inhibition at 200 µM [2, 5]	IC50 [2, 8]	Ki [2, 9]	Ligand efficiency (binding enery per heavy atom) [2, 10]	Number of isomers bound [1, 16]	Isomers modeled [1, 17]	other results
OCC(Nc1ncnc2[nH]ccc12)c1ccccc1 (centres unmarked) [AVI-3715]	1	54%						PanDDA run, TFA/DMSO background map: 1-BDC ([1]; TFA/DMSO background map): 0.09; PanDDA run, TFA/DMSO background map: Hit ([1]; TFA/DMSO background map): TRUE; inhibition at 200 µM [2, 4]: 54%
OCC1COCCN1c1ncnc2[nH]ccc12 (centres unmarked) [AVI-3717]	2	62%						Isomers modeled [1, 6]: R,S; inhibition at 200 µM [2, 7]: 62%
CC(C)(C)C1CCC(CO)N(c2ncnc3[nH]ccc23)C1 (centres unmarked) [AVI-3719]	1	36%						inhibition at 200 µM [2, 7]: 36%
OC[C@@H]1C[C@@H]2CCC[C@@H]2N1c1ncnc2[nH]ccc12 [AVI-3720]	1		28 µM	26 µM	0.33			Isomers modeled [1, 6]: SSS
CN1CCN(c2ncnc3[nH]ccc23)C(CO)C1 (centres unmarked) [AVI-3721]	1	11%						Isomers modeled [1, 6]: R,R; inhibition at 200 µM [2, 7]: 11%
CC(C)(C)[C@@H]1CCN(c2ncnc3[nH]ccc23)[C@H](CO)C1 [AVI-3722]	1	22%						inhibition at 200 µM [2, 7]: 22%
OC[C@H]1CN2CCC[C@H]2CN1c1ncnc2[nH]ccc12 [AVI-3724]		< 10%						Pandda run, overall: Hit [1, 11]: TRUE; Pandda run, overall: Modeling comment [1, 11]: Weak density, not modeled; PanDDA run, DMSO background map: 1-BDC [1, 12]: 0.05; PanDDA run, DMSO background map: Hit [1, 12]: TRUE; inhibition at 200 µM [2, 7]: < 10%
CC1(C)CCC(CO)N(c2ncnc3[nH]ccc23)C1 (centres unmarked) [AVI-3726]	2	76%						Isomers modeled [1, 6]: R,R,S; inhibition at 200 µM [2, 7]: 76%
OCC1CC2(CCCCC2)CN1c1ncnc2[nH]ccc12 (centres unmarked) [AVI-3727]	1	67%						PanDDA run, TFA/DMSO background map: 1-BDC ([1]; TFA/DMSO background map): 0.25; PanDDA run, TFA/DMSO background map: Hit ([1]; TFA/DMSO background map): TRUE; inhibition at 200 µM [2, 7]: 67%
OCC1CC2(CCC2)CN1c1ncnc2[nH]ccc12 (centres unmarked) [AVI-3728]	1	79%						PanDDA run, TFA/DMSO background map: 1-BDC ([1]; TFA/DMSO background map): 0.26; PanDDA run, TFA/DMSO background map: Hit ([1]; TFA/DMSO background map): TRUE; Isomers modeled [1, 6]: S,S; inhibition at 200 µM [2, 7]: 79%
C[C@@H](O)[C@H](CO)Nc1ncnc2[nH]ccc12.O=C(O)C(F)(F)F [AVI-3730]	1	63%						PanDDA run, TFA/DMSO background map: 1-BDC ([1]; TFA/DMSO background map): 0.12; PanDDA run, TFA/DMSO background map: Hit ([1]; TFA/DMSO background map): TRUE; inhibition at 200 µM [2, 4]: 63%
O=C(O)C(F)(F)F.OC1([C@H]2CCCN2c2ncnc3[nH]ccc23)Cc2ccccc2C1 [AVI-3731]	1			3.4 µM	0.31			PanDDA run, TFA/DMSO background map: 1-BDC ([1]; TFA/DMSO background map): 0.14; PanDDA run, TFA/DMSO background map: Hit ([1]; TFA/DMSO background map): TRUE; fold more potent compared to open state binders reported previously ([2]; open state of Phe132 loop): 10–50 fold; IC50 ([2]; read-out: HTRF IC50): 3.7 µM
Cc1nn(C)cc1C1CCC(CO)N1c1ncnc2[nH]ccc12 (centres unmarked) [AVI-3733]	1	44%						inhibition at 200 µM [2, 7]: 44%
OCCC(CO)Nc1ncnc2[nH]ccc12 (centres unmarked) [AVI-3734]	1							Ligand efficiency (binding enery per heavy atom) [2, 13]: 0.37; Ki [2, 14]: 48 µM; IC50 ([2]; read-out: HTRF IC50): 52 µM
Cc1c[nH]c2ncnc(NCC(C)(C)O)c12 [AVI-3758, 2-methyl-1-((5-methyl-7H-pyrrolo[2,3-d]pyrimidin-4-yl)amino)propan-2-ol]						1	achiral,achiral	Occupancy difference (refined_occupancy - 2*(1-BDC)) [1]: 22; Refined ligand occupancy (%) [1]: 50%; 1-BDC [1]: 0.14; X-ray crystal structure [1]: TRUE; Hit (PanDDA run, overall) [1, 11]: TRUE; Hit (PanDDA run, DMSO background map) [1, 12]: TRUE; 1-BDC (PanDDA run, DMSO background map) [1, 15]: 0.19 and 0.14; Total number of conformations [1]: 2; 2*(1-BDC) (%) [1]: 28%; Binding site [1]: Adenosine; Hill slope ([2]; HTRF dose-response fit, Mac1): 1.0; Ligand efficiency (binding enery per heavy atom) [2, 13]: 0.40; Hill slope [2, 18]: 1.0; Ki [2, 14]: 26 µM; IC50 ([2]; read-out: HTRF IC50): 28 µM
Cc1c[nH]c2ncnc(NCC3(O)CCCC3)c12 [AVI-3760, 1-(((5-methyl-7H-pyrrolo[2,3-d]pyrimidin-4-yl)amino)methyl)cyclopentan-1-ol]						1	achiral,achiral	Occupancy difference (refined_occupancy - 2*(1-BDC)) [1]: 18; Refined ligand occupancy (%) [1]: 50%; 1-BDC [1]: 0.16; X-ray crystal structure [1]: TRUE; Hit (PanDDA run, overall) [1, 11]: TRUE; Hit (PanDDA run, DMSO background map) [1, 12]: TRUE; 1-BDC (PanDDA run, DMSO background map) [1, 15]: 0.19 and 0.16; Total number of conformations [1]: 2; 2*(1-BDC) (%) [1]: 32%; Binding site [1]: Adenosine; Hill slope ([2]; HTRF dose-response fit, Mac1): 1.1; Ligand efficiency (binding enery per heavy atom) [2, 13]: 0.36; Hill slope [2, 18]: 1.1; IC50 [2, 19]: 19 µM; Ki [2, 14]: 18 µM
Cc1c[nH]c2ncnc(NCC3(O)CCCCC3)c12 [AVI-3761, 1-(((5-methyl-7H-pyrrolo[2,3-d]pyrimidin-4-yl)amino)methyl)cyclohexan-1-ol]								Isomers modeled [1]: achiral; Number of isomers bound [1]: 1; Ki [2]: 12 µM; IC50 ([2]; HTRF IC50): 13 µM

Compound	Number of isomers bound [1, 3]	inhibition at 200 µM [2, 5]	IC50 [2, 8]	Ki [2, 9]	Ligand efficiency (binding enery per heavy atom) [2, 10]	Number of isomers bound [1, 16]	Isomers modeled [1, 17]	other results
CC(O)C1CCCN1c1ncnc2[nH]ccc12 (centres unmarked) [AVI-4062]				51 µM	0.35	1		fold decrease in affinity compared to AVI-607 ([2]; HTRF): ~ 3 fold; IC50 ([2]; read-out: HTRF IC50): 55 µM
O=C(O)C(F)(F)F.OC[C@H](Cc1ccc(O)cc1)Nc1ncnc2[nH]ccc12 [AVI-4066]						1		Hit (PanDDA run, TFA/DMSO background map) ([1]; crystal soak 10 mM, TFA/DMSO background map): TRUE; 1-BDC (PanDDA run, TFA/DMSO background map) ([1]; crystal soak 10 mM, TFA/DMSO background map, event 1): 0.19 and 0.29 and 0.3; Ligand efficiency (binding enery per heavy atom) [2, 13]: 0.21; IC50 [2, 19]: 720 µM; Ki [2, 14]: 670 µM
CC(C)(O)C1N(c2ncnc3[nH]ccc23)CCC1(C)C (centres unmarked) [AVI-4126]			100 µM	93 µM	0.28	2	R,S	
CC(C)(O)C1C2CCCCC2CN1c1ncnc2[nH]ccc12 (centres unmarked) [AVI-4127]			130 µM	120 µM	0.25	2	SSR,SRS	
CC(C)(O)C1C2CCC2CN1c1ncnc2[nH]ccc12 (centres unmarked) [AVI-4128]				22 µM	0.32	1	SRR	IC50 ([2]; read-out: HTRF IC50): 24 µM
Cc1c[nH]c2ncnc(NCC3(O)CCOCC3)c12 [AVI-4194, 4-(((5-methyl-7H-pyrrolo[2,3-d]pyrimidin-4-yl)amino)methyl)tetrahydro-2H-pyran-4-ol]			160 µM	150 µM	0.28	1	achiral	
Cc1c[nH]c2ncnc(NCC3(O)CCSCC3)c12 [AVI-4195, 4-(((5-methyl-7H-pyrrolo[2,3-d]pyrimidin-4-yl)amino)methyl)tetrahydro-2H-thiopyran-4-ol]			52 µM	48 µM	0.31	1	achiral	
CC1CCCC(O)(CNc2ncnc3[nH]ccc23)C1 (centres unmarked) [AVI-4307]			40 µM	37 µM	0.32	1		
OC1(CNc2ncnc3[nH]ccc23)CCC(F)(F)CC1 [AVI-4308]			140 µM	130 µM	0.27	1	achiral	
OC1(CNc2ncnc3[nH]ccc23)CCCC(C(F)(F)F)C1 (centres unmarked) [AVI-4309]			150 µM	140 µM	0.24	1		
OC1(CNc2ncnc3[nH]ccc23)CCCOC1 (centres unmarked) [AVI-4311]			170 µM	160 µM	0.29	1		
CC1CCC(O)(CNc2ncnc3[nH]ccc23)CC1 (centres unmarked) [AVI-4312]			21 µM	20 µM	0.34	1	rr	
OC1(CNc2ncnc3[nH]ccc23)COC2CC1C2 (centres unmarked) [AVI-4313]			130 µM	120 µM	0.29	1		
OC1(CNc2ncnc3[nH]ccc23)CCOCC1 [AVI-4314]			230 µM	210 µM	0.28	1	achiral	
O=S1(=O)CCCC(O)(CNc2ncnc3[nH]ccc23)C1 (centres unmarked) [AVI-4317]				100 µM	0.28	1		fold less potent compared to the AVI-3761 parent ([2]; HTRF IC50): ~ 4 fold; IC50 ([2]; read-out: HTRF IC50): 110 µM
CN(CC1(O)CCOCC1)c1ncnc2[nH]ccc12 [AVI-4318]			71 µM	66 µM	0.30	1	achiral	
